According to PubChem BioAssay (NCI):
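Five compound concentrations were applied to cells in 96-well plates for 48 hours; endpoints were derived by simple linear interpolation of the resulting dose-response curve. GI50: concentration for 50% inhibition of growth. Definition used: TGI = concentration required for complete inhibition of growth.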

How the values were obtained:
Experiment in all cases: NCI-60 cell line screen, 48 h
[1] = test system: HCT-116 colon
[2] = test system: SR leukemia
[3] = test system: HT29 colon
[4] = test system: MOLT-4 leukemia
[5] = test system: OVCAR-3 ovarian
[6] = test system: ACHN renal
[7] = test system: SW-620 colon
[8] = test system: M14 melanoma
[9] = test system: SN12C renal
[10] = test system: HS 578T breast
[11] = test system: NCI-H522 lung
[12] = test system: COLO 205 colon
[13] = test system: NCI-H226 lung
[14] = test system: U251 CNS
[15] = test system: SK-MEL-5 melanoma
[16] = test system: IGROV1 ovarian
[17] = test system: T-47D breast
[18] = test system: CCRF-CEM leukemia
[19] = test system: OVCAR-8 ovarian
[20] = test system: MALME-3M melanoma
[21] = test system: UACC-62 melanoma
[22] = test system: SF-268 CNS
[23] = test system: SK-OV-3 ovarian
[24] = test system: SF-295 CNS
[25] = test system: NCI-H23 lung
[26] = test system: UACC-257 melanoma
[27] = test system: HCT-15 colon
[28] = test system: SK-MEL-28 melanoma

Work on `COc1ccc(C(=O)Nc2ccc(-c3ccc4c(c3)NC(=O)/C4=C\c3ccc[nH]3)cc2)cc1` yielded a GI50 [1] of 15.7 µM, a TGI [1] greater than 100 µM and a GI50 [2] of 13.4 µM. The TGI [2] was greater than 100 µM, the GI50 [3] was 4.23 µM and the TGI [3] was 19.8 µM. For the same molecule, the GI50 [4] was 19.4 µM, the TGI [4] was greater than 100 µM and the GI50 [5] was 47.1 µM. The TGI [5] was greater than 100 µM, the GI50 [6] was 48.2 µM and the TGI [6] was greater than 100 µM. The GI50 [7] was 8.39 µM, the TGI [7] was greater than 100 µM and the GI50 [8] was 7.15 µM. For the same molecule, the TGI [8] was greater than 100 µM, the GI50 [9] was 68.9 µM and the TGI [9] was greater than 100 µM. For the same molecule, the GI50 [10] was 5.82 µM, the TGI [10] was 49.2 µM and the GI50 [11] was 17 µM. For the same molecule, the TGI [11] was 91.3 µM, the GI50 [12] was 3.36 µM and the TGI [12] was 12.1 µM. The GI50 [13] was 4.08 µM, the TGI [13] was greater than 100 µM and the GI50 [14] was 5.29 µM. It also gave a TGI [14] of 18.9 µM, a GI50 [15] greater than 100 µM and a TGI [15] greater than 100 µM. The GI50 [16] was 37.6 µM, the TGI [16] was greater than 100 µM and the GI50 [17] was 3.17 µM. The TGI [17] was 41.2 µM, the GI50 [18] was greater than 100 µM and the TGI [18] was greater than 100 µM. For the same molecule, the GI50 [19] was 2.95 µM, the TGI [19] was 10.3 µM and the GI50 [20] was 13.4 µM. It also gave a TGI [20] greater than 100 µM, a GI50 [21] of 20.5 µM and a TGI [21] greater than 100 µM. The GI50 [22] was 28.7 µM, the TGI [22] was greater than 100 µM and the GI50 [23] was greater than 100 µM. For the same molecule, the TGI [23] was greater than 100 µM, the GI50 [24] was 13.9 µM and the TGI [24] was 62.4 µM. For the same molecule, the GI50 [25] was 12.4 µM, the TGI [25] was greater than 100 µM and the GI50 [26] was 9.07 µM. For the same molecule, the TGI [26] was greater than 100 µM, the GI50 [27] was 23 µM and the TGI [27] was greater than 100 µM. It also gave a GI50 [28] of 79.6 µM.
